For one assay, the target named is human FLAP (Homo sapiens (Human), UniProt P20292). The experiment in a line: FLAP binding assay (HTRF). The following applies: human FLAP-containing membranes, HTRF format; average of two assay plates, duplicates; read-out: FLAP Binding wild type HTRF Ki. The procedure, abridged: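 Samples were run in duplicate on each of two assay plates, the results were averaged, and the signal was expressed as an HTRF ratio.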

Assay [1] concerns leukotriene pathway in human whole blood (LTB4 levels). The experiment in a line: Human whole blood assay (LTB4). Format: cell-based. Particulars: human whole blood diluted 1:1 in RPMI, stimulated with calcium ionophore A23187; single replicate. In short, it runs like this: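 Blood (heparin) diluted 1:1 RPMI; compound pre-incubation 15 min, 37° Celsius; A23187 7 μg/mL, 30 min, 37° Celsius; plasma LTB4 by commercial kit. IC50 via 4-parameter equation.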

32 compounds from patent US9073876B2, “Flap modulators” (JANSSEN PHARMACEUTICA NV, priority 2013, dated 2015) can be followed below.

Chain of human FLAP (P20292 whole entry): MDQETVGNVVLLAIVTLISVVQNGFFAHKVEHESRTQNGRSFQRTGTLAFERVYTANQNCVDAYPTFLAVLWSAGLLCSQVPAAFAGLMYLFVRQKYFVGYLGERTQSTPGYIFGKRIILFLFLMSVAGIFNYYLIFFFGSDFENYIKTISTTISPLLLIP

As for `Nc1ccnc(Oc2c(C3CCC3)ccc(-c3cnc4c(c3)OCCN4)c2F)n1` [Example 226, 2-(6-cyclobutyl-3-(3,4-dihydro-2H-pyrido[3,2-b][1,4]oxazin-7-yl)-2-fluorophenoxy)pyrimidin-4-amine], the Ki on human FLAP amounted to 1.4 nM. The IC50 in assay [1] is 90.1 nM.

In the case of `COc1ccc(S(F)(F)(F)(F)F)cc1COc1c(C2CCC2)ccc(-c2cnc(N)cn2)c1F` [Example 76, 5-(4-Cyclobutyl-2-fluoro-3-{[2-methoxy-5-(pentafluoro-lambda~6~- sulfanyl)benzyl]oxy}phenyl)pyrazin-2-amine], on human FLAP, the Ki was determined as 250 nM. Besides, in assay [1], the IC50 was found to be 1770 nM.

For the compound `Nc1cnc(-c2ccc(C3CCC3)c(Oc3ccc(C(F)(F)F)cn3)c2F)cn1` [Example 113, 5-(4-Cyclobutyl-2-fluoro-3-{[5-(trifluoromethyl)pyridin-2-yl]oxy}phenyl)pyrazin-2-amine], on human FLAP, the Ki is 27 nM. The half-inhibitory concentration (IC50) in assay [1] turned out to be 608 nM.

In the case of `NCCNc1nccc(Oc2c(C3CCC3)ccc(-c3cnc(N)cn3)c2F)n1` [Example 150, N-{4-[3-(5-Aminopyrazin-2-yl)-6-cyclobutyl-2-fluorophenoxy]pyrimidin-2-yl}ethane-1,2-diamine], on human FLAP, the inhibitory constant (Ki) was 176 nM. For the same compound, the IC50 in assay [1] was 3590 nM.

Take `Cc1cc(Oc2c(C3CCC3)ccc(-c3cnc(N)cn3)c2F)nc(N)n1` [Example 96, 4-[3-(5-aminopyrazin-2-yl)-6-cyclobutyl-2-fluorophenoxy]-6-methylpyrimidin-2-amine]: the Ki on human FLAP amounted to 7 nM. Further, in assay [1], the concentration for half-maximal inhibition (IC50) was 33.8 nM.

Regarding `NC(=O)c1ncc(Oc2c(C3CCC3)ccc(-c3cnc(N)cn3)c2F)cn1` [Example 329, 5-(3-(5-Aminopyrazin-2-yl)-6-cyclobutyl-2-fluorophenoxy)pyrimidine-2-carboxamide], the Ki on human FLAP was determined as 9.7 nM. Besides, the IC50 in assay [1] was 39 nM.

Regarding `CS(=O)(=O)c1ccc(COc2c(C3CCC3)ccc(-c3cnc(N)cn3)c2F)cc1` [Example 7, 5-(4-Cyclobutyl-2-fluoro-3-{[4-(methylsulfonyl)benzyl]oxy}phenyl)-pyrazin-2-amine], the Ki at human FLAP was found to be 7 nM. In assay [1], the concentration for half-maximal inhibition (IC50) stood at 1400 nM.

As to `NC(=O)c1ccc(COc2c(C3CCC3)ccc(-c3cnc4c(c3)OCCN4)c2F)cc1` [Example 193, 4-{[6-Cyclobutyl-3-(3,4-dihydro-2H-pyrido[3,2-b][1,4]oxazin-7-yl)-2-fluorophenoxy]-methyl}-benzamide], the Ki at human FLAP was found to be 3.7 nM. Further, the IC50 in assay [1] was determined as 769 nM.

In the case of `Nc1cnc(-c2ccc(C3CCC3)c(OCc3cccc(C(=O)O)c3)c2F)cn1` [Example 4, 3-{[3-(5-Aminopyrazin-2-yl)-6-cyclobutyl-2-fluorophenoxy]methyl}benzoic acid], on human FLAP, the inhibition constant Ki was found to be 4 nM. In addition, the IC50 in assay [1] turned out to be 298 nM.

Consider `Nc1cnc(-c2ccc(C3CCC3)c(OCc3ccc(-c4nnn[nH]4)cc3)c2F)cn1` [Example 20, 5-(4-Cyclobutyl-2-fluoro-3-{[4-(1H-tetrazol-5-yl)benzyl]oxy}phenyl)pyrazin-2-amine], for which the Ki at human FLAP amounted to 5 nM. In addition, the IC50 in assay [1] is above 10000 nM.

Turning to `CNc1nc(C)cc(Oc2c(C3CCC3)ccc(-c3cnc(N)cn3)c2F)n1` [Example 269, 4-[3-(5-Aminopyrazin-2-yl)-6-cyclobutyl-2-fluorophenoxy]-N,6-dimethylpyrimidin-2-amine], the Ki at human FLAP was 0.9 nM. Besides, in assay [1], the IC50 is 15.1 nM.

In the case of `Fc1c(-c2cnc3[nH]ccc3n2)ccc(C2CCC2)c1Oc1ncccn1` [Example 230, 2-(4-cyclobutyl-2-fluoro-3-(pyrimidin-2-yloxy)phenyl)-5H-pyrrolo[2,3-b]pyrazine], at human FLAP, the Ki was 2.5 nM. For the same compound, the IC50 in assay [1] is 238 nM.

`Nc1cnc(-c2ccc(C3CCC3)c(OCc3ccccc3-c3nnn[nH]3)c2F)cn1` [Example 22, 5-(4-Cyclobutyl-2-fluoro-3-{[2-(1H-tetrazol-5-yl)benzyl]oxy}phenyl)pyrazin-2-amine]: the Ki at human FLAP is 6 nM. Moreover, the IC50 in assay [1] was above 10000 nM.

Regarding `Nc1cnc(-c2ccc(C3CCC3)c(OCC(O)Cn3ccnc3)c2F)cn1` (racemic) [Example 61, racemic 1-(3-(5-Aminopyrazin-2-yl)-6-cyclobutyl-2-fluorophenoxy)-3-(1H-imidazol-1-yl)propan-2-ol], the Ki at human FLAP is 262 nM. Also, in assay [1], the concentration for half-maximal inhibition (IC50) is 697 nM.

For `Nc1cnc(-c2ccc(C3CCC3)c(OCC(O)CNc3cnccn3)c2F)cn1` (racemic) [Example 57, racemic 1-(3-(5-Aminopyrazin-2-yl)-6-cyclobutyl-2-fluorophenoxy)-3-(pyrazin-2-ylamino)propan-2-ol], at human FLAP, the Ki came to 36 nM. Further, the IC50 in assay [1] was determined as 345 nM.

As to `N#Cc1cccnc1Oc1c(C2CCC2)ccc(-c2cnc(N)cn2)c1F` [Example 110, 2-[3-(5-Aminopyrazin-2-yl)-6-cyclobutyl-2-fluorophenoxy]pyridine-3-carbonitrile], the Ki at human FLAP was 2.4 nM. In addition, in assay [1], the IC50 came out at 52.2 nM.

On to `Nc1cnc(-c2ccc(C3CCC3)c(OCCN3CCOCC3)c2F)cn1` [Example 244, 5-(4-Cyclobutyl-2-fluoro-3-(2-morpholinoethoxy)phenyl)pyrazin-2-amine], for which, at human FLAP, the Ki was 462 nM. In assay [1], the IC50 was 1820 nM.

On to `N#Cc1ccc(COc2c(C3CCC3)ccc(-c3cnc4c(c3)OCCN4)c2F)cc1` [Example 190, 4-{[6-Cyclobutyl-3-(3,4-dihydro-2H-pyrido[3,2-b][1,4]oxazin-7-yl)-2-fluorophenoxy]-methyl}-benzonitrile], for which the Ki on human FLAP was 47.2 nM. Also, in assay [1], the IC50 turned out to be 1060 nM.

Turning to `Cc1ccc(COc2c(C3CCC3)ccc(-c3cnc(N)cn3)c2F)cc1C` [Example 41, 5-{4-Cyclobutyl-3-[(3,4-dimethylbenzyl)oxy]-2-fluorophenyl}pyrazin-2-amine], on human FLAP, the Ki was 250 nM. Also, in assay [1], the concentration for half-maximal inhibition (IC50) was 1350 nM.

As for `Nc1cnc(-c2ccc(C3CCC3)c(OCc3cccc(C(F)(F)F)c3)c2F)cn1` [Example 2, 5-(4-Cyclobutyl-2-fluoro-3-{[3-(trifluoromethyl)benzyl]oxy}phenyl)-pyrazin-2-amine], at human FLAP, the Ki is 158 nM. The IC50 in assay [1] was found to be 526 nM.

With `COc1cc(Oc2c(C3CCC3)ccc(-c3cnc(N)nc3)c2F)ncn1` [Example 170, 5-(4-cyclobutyl-2-fluoro-3-((6-methoxypyrimidin-4-yl)oxy)phenyl)pyrimidin-2-amine], on human FLAP, the Ki was 90.3 nM. Also, in assay [1], the IC50 was determined as 1430 nM.

Turning to `CCCc1ccc(-c2cnc(N)cn2)c(F)c1Oc1ncccn1` [Example 319, 5-[2-Fluoro-4-propyl-3-(pyrimidin-2-yloxy)phenyl]pyrazin-2-amine], on human FLAP, the Ki amounted to 337 nM. Also, the 50% inhibitory concentration (IC50) in assay [1] was determined as 284 nM.

`Fc1c(-c2cnc3[nH]ccc3n2)ccc(C2CCCC2)c1OCc1ccccc1` [Example 214, 2-[3-(Benzyloxy)-4-cyclopentyl-2-fluorophenyl]-5H-pyrrolo[2,3-b]pyrazine]: the Ki at human FLAP turned out to be 30.8 nM. For the same compound, in assay [1], the concentration for half-maximal inhibition (IC50) was found to be 1090 nM.

As to `Nc1cnc(-c2ccc(C3CCC3)c(Oc3ncc(-c4cnc(N)nc4)cn3)c2F)cn1` [Example 313, 2′-[3-(5-Aminopyrazin-2-yl)-6-cyclobutyl-2-fluorophenoxy]-5,5′-bipyrimidin-2-amine], the Ki on human FLAP amounted to 2.4 nM. Further, the IC50 in assay [1] came out at 27 nM.

In the case of `CN(C)c1cc(Oc2c(C3CCC3)ccc(-c3cnc(N)cn3)c2F)nc(C(F)(F)F)n1` [Example 139, 6-[3-(5-Aminopyrazin-2-yl)-6-cyclobutyl-2-fluorophenoxy]-N,N-dimethyl-2-(trifluoromethyl)pyrimidin-4-amine], the Ki on human FLAP was 3.9 nM. In addition, the IC50 in assay [1] was determined as 48.5 nM.

As to `COc1c(C2CCC2)ccc(-c2cnc3c(c2)OCCN3)c1F` [Example 184, 7-(4-cyclobutyl-2-fluoro-3-methoxyphenyl)-3,4-dihydro-2H-pyrido[3,2-b][1,4]oxazine], the Ki at human FLAP stood at 14 nM. The IC50 in assay [1] was 831 nM.

Regarding `Nc1cnc(-c2ccc(C3CCC3)c(OCCNc3ccnc(N)n3)c2F)cn1` [Example 332, N^4-(2-(3-(5-Aminopyrazin-2-yl)-6-cyclobutyl-2-fluoro-phenoxy)ethyl)pyrimidine-2,4-diamine], on human FLAP, the Ki turned out to be 45.8 nM. For the same compound, the IC50 in assay [1] was found to be 450 nM.

Turning to `Nc1cnc(-c2ccc(C3CCC3)c(Oc3nccc(C(F)(F)F)n3)c2F)cn1` [Example 131, 5-(4-Cyclobutyl-2-fluoro-3-{[4-(trifluoromethyl)pyrimidin-2-yl]oxy}phenyl)pyrazin-2-amine], the inhibitory constant (Ki) on human FLAP was determined as 5.6 nM. The IC50 in assay [1] was found to be 67.9 nM.

In the case of `CC(C)(C)c1cc(Oc2c(C3CCC3)ccc(-c3cnc(N)cn3)c2F)nc(N)n1` [Example 240, 4-(3-(5-aminopyrazin-2-yl)-6-cyclobutyl-2-fluorophenoxy)-6-(tert-butyl)pyrimidin-2-amine], the Ki on human FLAP came out at 23.6 nM. Moreover, the concentration for half-maximal inhibition (IC50) in assay [1] amounted to 104 nM.

With `Nc1cnc(-c2ccc(C3CCC3)c(OCCN3C(=O)c4ccccc4C3=O)c2F)cn1` [Example 293, 2-{2-[3-(5-aminopyrazin-2-yl)-6-cyclobutyl-2-fluorophenoxy]ethyl}-1H-isoindole-1,3(2H)-dione], the Ki on human FLAP was 16.5 nM. The IC50 in assay [1] was 1000 nM.

As for `Nc1cnc(-c2ccc(C3CCC3)c(OCC(O)CN3CCS(=O)(=O)CC3)c2F)cn1` (racemic) [Example 256, 4-(3-(3-(5-Aminopyrazin-2-yl)-6-cyclobutyl-2-fluorophenoxy)-2-hydroxypropyl)thiomorpholine 1,1-dioxide], the Ki at human FLAP amounted to 434 nM. The IC50 in assay [1] turned out to be 718 nM.

For the compound `Nc1cnc(-c2ccc(C3CCC3)c(OCc3ccc(S(F)(F)(F)(F)F)cc3F)c2F)cn1` [Example 78, 5-(4-Cyclobutyl-2-fluoro-3-{[2-fluoro-4-(pentafluoro-lambda~6~- sulfanyl)benzyl]oxy}phenyl)pyrazin-2-amine], the Ki at human FLAP was determined as 173 nM. The IC50 in assay [1] was found to be 1290 nM.
